Values after ≈ are worked out from the molar mass of the structure shown. “Also recorded” adds a separate entry of the source.
Tests used:
[1] = test system: P. falciparum D6, W2 and TM91C235; assay: Isobologram analysis azithromycin and WR074086, P. falciparum D6, W2 and TM91C235; assay type: cell-based, Plasmodium falciparum; conditions: WR074086 combined with azithromycin; in many instances; FIGS. 4-6
Experimental: (§1) The combined effects of azithromycin (as represented by compound 196 on the horizontal axes of FIG. 4 through 6) and WR074086 (as represented by compound 14885 on vertical axes of FIGS. 4 through 6) against three strains of P. falciparum were investigated using isobologram analysis. First, the IC50s of each compound were determined as described above.
(§2) Next, IC50s were determined with different fractional starting concentrations of each compound. For example in line C of FIG. 5, the starting concentration of azithromycin was 12500 ng/ml whereas the starting concentration of WR074086 was 5 ng/ml. Each of these starting concentrations is half of that used when each compound was tested alone. […] In the data tables, lines D-H represent other combinations of starting concentrations of each compound.
(§3) For each pair of starting concentrations for each drug, fractional inhibitory concentrations were determined using the following formula: FIC=IC50 in combination/IC50 alone.
The FICs for the eight tests are plotted as indicated in FIG. 4 through FIG. 6 for each of three P. falciparum strains. Graphs of this type are called isobolograms and additivity is represented by an overall FIC SUM of 1, as represented by the straight line joining the two axes. A potentiative effect is represented by a concave curve below the straight line, since IC50s in combination are lower than expected. […]

P. falciparum D6 [2] = assay: Isobologram analysis azithromycin and WR074086, P. falciparum D6; assay type: cell-based, Plasmodium falciparum
Experimental: as §1, §2, §3
The FICs for the eight tests are plotted as indicated in FIG. 4 through FIG. 6 for each of three P. falciparum strains. Graphs of this type are called isobolograms and additivity is represented by an overall FIC SUM of 1, as represented by the straight line joining the two axes. A potentiative effect is represented by a concave curve below the straight line, since IC50s in combination are lower than expected. Antagonism is represented by a convex curve above the straight line, since IC50s in combination are higher than expected.

P. falciparum TM91C235 = assay: In vitro antimalarial activity against P. falciparum TM91C235; assay type: cell-based, Plasmodium falciparum
Experimental: (§4) The in vitro activities of AAQMs against P. falciparum strains W2, D6, TM91C235 and TM90C2A were evaluated using the method of Desjardins et al. as modified by Milhous et al. W2 is chloroquine resistant and mefloquine sensitive, D6 is chloroquine sensitive but naturally less susceptible to mefloquine, TM91C235 is resistant to mefloquine, chloroquine and pyrimethamine as is TM90C2A, however this latter parasite is a two pfmdr1 copy strain. We routinely run mefloquine in this screen as a control to ensure assay validity.

[3] = test system: FVO strain of P. falciparum; assay: Efficacy in P. falciparum-challenged Aotus monkeys; assay type: in vivo, Plasmodium falciparum in Aotus lemurinus lemurinus; conditions: 10 mg/kg/day x7 oral; groups of two; Cure = parasite free 90 days; R = average day of recrudescence; Failure = rescued with mefloquine
Experimental: (§5) The P. berghei-mouse efficacy data were obtained from the WRAIR chemical information system (subcutaneous testing) or from recent tests conducted at AFRIMS, Thailand or at the University of Miami using a modified version of the Thompson test. Groups of five mice were inoculated through i.p. injection on day 0 (usually with 1×106 P. berghei-parasitized erythrocytes). The drugs in Table 1 were administered either subcutaneously or orally for three days (usually on days 3-5) at doses of 1.25-160 mg/kg in two to four fold increments. Cure was defined as survival until day 60 (subcutaneous dosing) or day 31 post-treatment (oral dosing). […] The minimum effective dose was the lowest dose level that cured at least one of five mice. The Aotus studies were performed according to Obaldia; Detection of Klebsiella pnuumoniae antibodies in Aotus l. lemurinus (Panamanian owl monkey) using an enzyme linked immunosorbent assay (ELIA) test; Lab Anim (25)133-141 (1991) and Obaldia et al., WR 238605, chloroquine, and their combinations as blood schizonticides against a chloroquine-resistant strain of Plasmodium vivax in Aotus monkeys; Am. J. Trop. Med. Hyg. (56)508-510 (1997), which are incorporated by reference, herein. Groups of two Aotus lemurinus 6 lemurinus of the karyotype VIII or IX (27) male and female monkeys with weights ranging from 742-970 g were inoculated with 5×10^6 parasites of either the FVO strain of P. falciparum or the AMRU1 strain of P. vivax. Both of these strains are chloroquine resistant. […] Monkeys were examined and thick Giemsa-stained blood smears were prepared and enumerated daily (17) to monitor the course of infection. […] In some instances, a high dose of the test drug was used to retreat monkeys instead of the mefloquine rescue. Monkeys are considered cured if they are parasite free 90 days post treatment. […] Plasma samples were taken from the monkeys in some studies for quantification of metabolites. Additional blood samples were taken as appropriate for complete blood counts and serum chemistry. Research was conducted in compliance with the Animal Welfare Act and other federal statutes and regulations relating to animals and experiments involving animals and adheres to principles stated in the Guide for the Care and Use of Laboratory Animals, NRC Publication, 1996 edition (34).

[4] = Aotus, 10 mg/kg/day oral x7
Experimental: as §5

P. falciparum D6 [5] = assay: In vitro antimalarial activity against P. falciparum D6; assay type: cell-based, Plasmodium falciparum; conditions: FIG. 5
Experimental: as §4, §1

FIC (IC50 in combination/IC50 alone) (P. falciparum D6 [2]; Line C FIG. 5: starting azithromycin 12500 ng/ml, WR074086 5 ng/ml): 0.399 | Activity against P. falciparum TM91C235 (IC50 in ng/ml) (P. falciparum TM91C235): 3.4 ng/mL | TM91C235 IC90 (P. falciparum TM91C235; Table 2): 7.0 ng/mL | Mean peak concentration [4]: 129 ng/mL | Plasma conc on day 1 (ng/ml) 2 h ([4]; day 1, 2 h): 179 ng/mL | Plasma conc on day 1 (ng/ml) 24 h ([4]; day 1, 24 h): 4.0 ng/mL | Plasma conc. on day 7 (ng/ml) 2 h ([4]; day 7, 2 h): 78 ng/mL | Plasma conc. on day 7 (ng/ml) 24 h ([4]; day 7, 24 h): 78 ng/mL | IC50 against P. falciparum D6, compound alone (P. falciparum D6 [5]): 1.8086 ng/mL (≈ 3.9 nM)
Compound: CCCCN(CCCC)CC(O)c1cc(-c2ccc(F)cc2)nc2c(Cl)cc(Cl)cc12 (stereo not drawn) [WR074086]
Minimum fractional inhibitory concentration (FIC) [1]: < 0.5 | FIC sum (P. falciparum D6 [2]; azithromycin + WR074086, Line C FIG. 5): 0.648 | Outcome in Aotus [3]: cleared parasitemias, but recrudescence was subsequently observed; also recorded: Clear (R25)
